The source made the active and inactive calls. The calls are words filed in the database; no cut-off is given here.

In assay [1] the target is Protein-tyrosine kinase 6 (Homo sapiens) (UniProt Q13882).
The target of assay [2] is Sodium-dependent noradrenaline transporter (Homo sapiens, UniProt P23975). Put plainly: GPCRScan assay: inhibition of NET. Also noted: radioligand conc. used [nm] 1.3 – 5.0, parental cells stable HEK.
Assay [3] concerns the target T1, Discoidin domain-containing receptor 2 (Homo sapiens, UniProt Q16832).
T1 sequence (Q16832 whole entry): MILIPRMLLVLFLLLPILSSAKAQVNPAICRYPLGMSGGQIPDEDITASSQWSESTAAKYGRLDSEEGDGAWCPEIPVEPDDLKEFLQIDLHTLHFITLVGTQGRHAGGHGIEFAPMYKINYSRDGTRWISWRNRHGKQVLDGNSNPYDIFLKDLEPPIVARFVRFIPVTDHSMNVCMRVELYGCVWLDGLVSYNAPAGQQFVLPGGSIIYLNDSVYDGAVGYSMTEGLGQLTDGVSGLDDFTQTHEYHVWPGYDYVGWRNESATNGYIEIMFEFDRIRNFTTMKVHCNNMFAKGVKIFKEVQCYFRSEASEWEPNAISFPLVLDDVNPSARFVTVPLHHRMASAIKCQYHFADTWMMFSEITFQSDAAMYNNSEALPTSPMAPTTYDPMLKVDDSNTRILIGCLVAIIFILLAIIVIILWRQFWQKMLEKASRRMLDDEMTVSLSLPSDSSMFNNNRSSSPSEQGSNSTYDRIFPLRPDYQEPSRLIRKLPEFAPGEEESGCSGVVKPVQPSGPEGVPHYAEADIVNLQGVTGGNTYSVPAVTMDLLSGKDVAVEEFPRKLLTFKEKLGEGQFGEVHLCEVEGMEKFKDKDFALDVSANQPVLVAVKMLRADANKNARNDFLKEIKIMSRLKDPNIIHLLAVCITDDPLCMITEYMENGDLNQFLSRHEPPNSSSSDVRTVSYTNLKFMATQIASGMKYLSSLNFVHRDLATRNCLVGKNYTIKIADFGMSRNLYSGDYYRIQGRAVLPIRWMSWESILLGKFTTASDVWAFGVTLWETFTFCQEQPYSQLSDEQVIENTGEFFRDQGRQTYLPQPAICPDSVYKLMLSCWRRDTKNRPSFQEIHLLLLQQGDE
Description: Inhibition of DDR2 at compound concentration of 10.0 uM using the ScanMax (DiscoverX).

In assay [4] the target is TRAF2 and NCK-interacting protein kinase (Homo sapiens) (UniProt Q9UKE5).
Sequence of TRAF2 and NCK-interacting protein kinase (Homo sapiens) (Q9UKE5 whole entry, looked up): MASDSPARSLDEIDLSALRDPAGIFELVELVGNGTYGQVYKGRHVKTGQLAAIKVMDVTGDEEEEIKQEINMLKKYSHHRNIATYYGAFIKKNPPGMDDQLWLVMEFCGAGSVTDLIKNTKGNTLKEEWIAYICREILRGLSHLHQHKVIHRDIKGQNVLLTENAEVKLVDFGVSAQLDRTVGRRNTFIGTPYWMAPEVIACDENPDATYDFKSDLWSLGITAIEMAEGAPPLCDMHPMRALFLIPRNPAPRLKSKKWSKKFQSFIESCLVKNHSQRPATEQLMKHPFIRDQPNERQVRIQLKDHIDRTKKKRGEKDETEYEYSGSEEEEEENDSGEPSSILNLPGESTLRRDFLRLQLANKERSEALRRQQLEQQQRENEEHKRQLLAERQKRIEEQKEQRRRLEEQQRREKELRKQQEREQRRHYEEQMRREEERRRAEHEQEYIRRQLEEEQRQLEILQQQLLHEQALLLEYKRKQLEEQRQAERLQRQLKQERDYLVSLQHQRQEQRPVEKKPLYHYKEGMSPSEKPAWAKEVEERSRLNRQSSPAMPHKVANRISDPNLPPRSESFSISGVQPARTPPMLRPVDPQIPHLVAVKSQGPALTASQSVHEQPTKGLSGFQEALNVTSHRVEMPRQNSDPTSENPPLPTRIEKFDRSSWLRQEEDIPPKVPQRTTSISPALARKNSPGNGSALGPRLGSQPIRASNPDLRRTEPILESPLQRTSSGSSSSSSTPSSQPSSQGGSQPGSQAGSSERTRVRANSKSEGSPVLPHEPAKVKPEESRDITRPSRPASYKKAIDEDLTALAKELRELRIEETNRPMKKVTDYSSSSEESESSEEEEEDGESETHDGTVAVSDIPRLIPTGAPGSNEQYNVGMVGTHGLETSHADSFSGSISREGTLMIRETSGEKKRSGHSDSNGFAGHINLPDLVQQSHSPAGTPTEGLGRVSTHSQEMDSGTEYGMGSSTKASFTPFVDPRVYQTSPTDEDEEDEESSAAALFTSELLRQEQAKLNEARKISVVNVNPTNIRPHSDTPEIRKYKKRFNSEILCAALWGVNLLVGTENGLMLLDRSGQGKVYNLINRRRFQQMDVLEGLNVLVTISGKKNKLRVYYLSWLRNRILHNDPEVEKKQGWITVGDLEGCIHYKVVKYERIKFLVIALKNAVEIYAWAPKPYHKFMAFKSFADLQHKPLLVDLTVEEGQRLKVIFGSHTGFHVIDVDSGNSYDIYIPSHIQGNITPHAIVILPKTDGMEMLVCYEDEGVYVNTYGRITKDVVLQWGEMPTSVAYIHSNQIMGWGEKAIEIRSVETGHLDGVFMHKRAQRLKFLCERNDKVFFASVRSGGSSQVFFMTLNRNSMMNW
In assay [5] the target is T2, Angiopoietin-1 receptor (Homo sapiens, UniProt Q02763). Description: KINOMEScan (DiscoveRx Corp) with TEK.
The target of assay [6] is GABA-A receptor; anion channel (Rattus norvegicus) (UniProt O09028+P15431+P18506+P18508+P19969+P20236+P23574+P23576+P28471+P28473+P30191+P62813+P63079+P63138+Q91ZM7+Q9ES14). To be noted: Compound concentration 10.0 uM.
Assay [7] addresses Epithelial discoidin domain-containing receptor 1 (Homo sapiens, UniProt Q08345). Description: Inhibition of DDR1 at compound concentration of 10.0 uM using the ScanMax (DiscoverX).
Assay [8] addresses Mu-type opioid receptor (Homo sapiens, UniProt P35372). Put plainly: GPCRScan assay: inhibition of MOR. Also noted: radioligand conc. used [nm] 1.0 – 2.0, parental cells stable HEK.
For assay [9], the target named is 5-hydroxytryptamine receptor 2C (Homo sapiens, UniProt P28335). Description: GPCRScan assay: inhibition of 5-HT2C. Also noted: radioligand conc. used [nm] 1.0 – 2.5, parental cells HEK T.
Assay [10] concerns the target Macrophage colony-stimulating factor 1 receptor (Homo sapiens) (UniProt P07333).
Assay [11] addresses Interleukin-1 receptor-associated kinase 1 (Homo sapiens) (UniProt P51617).
The target in assay [12] is D(1B) dopamine receptor (Homo sapiens) (UniProt P21918). To be noted: Compound concentration 10.0 uM.
The target of assay [13] is 5-hydroxytryptamine receptor 6 (Homo sapiens) (UniProt P50406). To be noted: Compound concentration 10.0 uM.
For assay [14], the target named is T3, Tyrosine-protein kinase receptor Tie-1 (Homo sapiens, UniProt P35590). To be noted: Compound concentration 1000.0 nM.
T3 sequence (P35590 whole entry): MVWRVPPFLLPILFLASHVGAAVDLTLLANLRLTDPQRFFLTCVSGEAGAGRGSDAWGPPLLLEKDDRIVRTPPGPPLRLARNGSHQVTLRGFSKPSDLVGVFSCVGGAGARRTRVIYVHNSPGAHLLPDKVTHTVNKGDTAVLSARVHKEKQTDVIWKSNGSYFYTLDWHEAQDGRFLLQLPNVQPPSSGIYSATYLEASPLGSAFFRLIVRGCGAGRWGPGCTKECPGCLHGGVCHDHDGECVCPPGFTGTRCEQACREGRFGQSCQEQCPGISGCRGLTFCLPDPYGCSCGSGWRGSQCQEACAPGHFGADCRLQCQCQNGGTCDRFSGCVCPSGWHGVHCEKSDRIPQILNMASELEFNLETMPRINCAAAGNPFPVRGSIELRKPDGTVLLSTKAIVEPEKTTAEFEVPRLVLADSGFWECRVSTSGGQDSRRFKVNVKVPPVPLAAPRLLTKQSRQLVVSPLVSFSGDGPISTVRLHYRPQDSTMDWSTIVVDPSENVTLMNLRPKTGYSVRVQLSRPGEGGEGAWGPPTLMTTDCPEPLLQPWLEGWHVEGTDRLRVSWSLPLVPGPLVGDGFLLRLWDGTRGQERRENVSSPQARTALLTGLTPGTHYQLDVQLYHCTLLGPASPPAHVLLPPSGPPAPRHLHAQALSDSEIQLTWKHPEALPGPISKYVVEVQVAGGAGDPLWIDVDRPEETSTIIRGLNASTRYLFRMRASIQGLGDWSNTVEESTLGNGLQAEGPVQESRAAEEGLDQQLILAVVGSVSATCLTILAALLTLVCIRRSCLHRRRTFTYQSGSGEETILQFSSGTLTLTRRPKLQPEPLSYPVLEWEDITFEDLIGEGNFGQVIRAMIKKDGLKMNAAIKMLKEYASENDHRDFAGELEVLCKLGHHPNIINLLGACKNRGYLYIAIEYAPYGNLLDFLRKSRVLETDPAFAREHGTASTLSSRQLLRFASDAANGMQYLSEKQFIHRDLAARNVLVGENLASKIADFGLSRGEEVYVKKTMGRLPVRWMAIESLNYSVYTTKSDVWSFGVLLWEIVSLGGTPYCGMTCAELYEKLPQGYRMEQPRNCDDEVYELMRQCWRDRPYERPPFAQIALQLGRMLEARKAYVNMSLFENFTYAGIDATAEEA
For assay [15], the target named is Delta-type opioid receptor (Homo sapiens, UniProt P41143). Description: GPCRScan assay: inhibition of DOR. Also noted: radioligand conc. used [nm] 1.0 – 2.0, parental cells stable HEK.
Assay [16] addresses Serine/threonine-protein kinase 10 (Homo sapiens, UniProt O94804). Put plainly: NanoBRET assay (SGC Frankfurt) with STK10. For orientation: Bioluminescence resonance energy transfer reports proximity on the nanometre scale.
The target of assay [17] is D(2) dopamine receptor (Homo sapiens, UniProt P14416). Description: GPCRScan assay: inhibition of D2. Also noted: radioligand conc. used [nm] 0.4 – 1.0, parental cells stable fibroblast.
The target of assay [18] is T3, Tyrosine-protein kinase receptor Tie-1. Description: NanoBRET assay (SGC Frankfurt) with TIE1.
For assay [19], the target named is 5-hydroxytryptamine receptor 2B (Homo sapiens, UniProt P41595). Put plainly: GPCRScan assay: inhibition of 5-HT2B. Also noted: radioligand conc. used [nm] 1.0 – 2.0, parental cells stable HEK.
The target in assay [20] is Glycogen synthase kinase-3 alpha (Homo sapiens) (UniProt P49840).
Sequence of Glycogen synthase kinase-3 alpha (Homo sapiens) (P49840 2-483 limits assumed): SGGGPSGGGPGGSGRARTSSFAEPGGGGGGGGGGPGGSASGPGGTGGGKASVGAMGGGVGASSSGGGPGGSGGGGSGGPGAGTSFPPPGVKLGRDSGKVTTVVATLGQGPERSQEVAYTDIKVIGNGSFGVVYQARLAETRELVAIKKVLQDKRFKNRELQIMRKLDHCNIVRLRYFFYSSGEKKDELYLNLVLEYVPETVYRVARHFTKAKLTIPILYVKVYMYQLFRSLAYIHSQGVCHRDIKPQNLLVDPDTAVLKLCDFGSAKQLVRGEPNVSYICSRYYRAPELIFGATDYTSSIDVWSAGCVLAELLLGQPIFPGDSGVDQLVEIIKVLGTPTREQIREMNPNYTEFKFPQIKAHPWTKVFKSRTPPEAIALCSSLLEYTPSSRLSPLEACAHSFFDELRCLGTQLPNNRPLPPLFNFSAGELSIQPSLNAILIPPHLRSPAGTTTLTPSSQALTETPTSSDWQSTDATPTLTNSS
The target in assay [21] is Alpha-1A adrenergic receptor (Homo sapiens) (UniProt P35348). To be noted: Compound concentration 10.0 uM.
Sequence of Alpha-1A adrenergic receptor (Homo sapiens) (P35348 whole entry): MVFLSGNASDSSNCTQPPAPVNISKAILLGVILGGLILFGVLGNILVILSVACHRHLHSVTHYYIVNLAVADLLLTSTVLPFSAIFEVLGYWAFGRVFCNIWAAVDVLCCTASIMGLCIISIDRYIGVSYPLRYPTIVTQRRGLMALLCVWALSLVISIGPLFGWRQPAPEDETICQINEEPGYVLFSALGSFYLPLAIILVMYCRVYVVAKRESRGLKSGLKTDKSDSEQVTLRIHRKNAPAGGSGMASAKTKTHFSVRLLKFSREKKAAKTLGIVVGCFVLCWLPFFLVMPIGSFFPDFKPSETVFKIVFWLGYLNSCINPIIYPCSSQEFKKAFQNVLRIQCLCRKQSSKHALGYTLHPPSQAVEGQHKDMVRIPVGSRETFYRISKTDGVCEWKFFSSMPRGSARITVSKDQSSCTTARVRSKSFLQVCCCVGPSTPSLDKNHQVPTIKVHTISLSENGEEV
The subject of assay [22] is Epidermal growth factor receptor (Homo sapiens), P00533 [G719C].
Assay [23] concerns the target D(3) dopamine receptor (Homo sapiens) (UniProt P35462). To be noted: Compound concentration 10.0 uM.
Assay [24] deals with T2, Angiopoietin-1 receptor. Put plainly: Bayer in-house kinase assay with TEK.
Assay [25] addresses Histamine H1 receptor (Homo sapiens) (UniProt P35367). To be noted: Compound concentration 10.0 uM.
The target in assay [26] is Fibroblast growth factor receptor 3 (Homo sapiens, UniProt P22607). Description: Bayer in-house kinase assay with […].
In assay [27] the target is Histamine H3 receptor (Homo sapiens) (UniProt Q9Y5N1). As to conditions: Compound concentration 10.0 uM.
In assay [28] the target is Vascular endothelial growth factor receptor 2 (Homo sapiens, UniProt P35968). Put plainly: KINOMEScan (DiscoveRx Corp) with KDR.
Assay [29] concerns the target Fibroblast growth factor receptor 1 (Homo sapiens, UniProt P11362). Put plainly: Bayer in-house kinase assay with FGFR1.
For assay [30], the target named is Histamine H4 receptor (Homo sapiens) (UniProt Q9H3N8). As to conditions: Compound concentration 10.0 uM.
Assay [31] addresses Platelet-derived growth factor receptor beta (Homo sapiens, UniProt P09619). Description: Bayer in-house kinase assay with PDGFRB.
Assay [32] has as its target Beta-3 adrenergic receptor (Homo sapiens, UniProt P13945). Description: GPCRScan assay: inhibition of Beta3. More on the design: radioligand conc. used [nm] 0.2 – 0.5, parental cells HEK Flp-In.
Assay [33] addresses Vascular endothelial growth factor receptor 3 (Homo sapiens, UniProt P35916). Description: Bayer in-house kinase assay with FLT4.
Where [34] appears, read: Compound concentration 1000.0 nM.
Setting [35] is: Compound concentration 100.0 nM.

Sequence of Protein-tyrosine kinase 6 (Homo sapiens) (Q13882 whole entry, looked up): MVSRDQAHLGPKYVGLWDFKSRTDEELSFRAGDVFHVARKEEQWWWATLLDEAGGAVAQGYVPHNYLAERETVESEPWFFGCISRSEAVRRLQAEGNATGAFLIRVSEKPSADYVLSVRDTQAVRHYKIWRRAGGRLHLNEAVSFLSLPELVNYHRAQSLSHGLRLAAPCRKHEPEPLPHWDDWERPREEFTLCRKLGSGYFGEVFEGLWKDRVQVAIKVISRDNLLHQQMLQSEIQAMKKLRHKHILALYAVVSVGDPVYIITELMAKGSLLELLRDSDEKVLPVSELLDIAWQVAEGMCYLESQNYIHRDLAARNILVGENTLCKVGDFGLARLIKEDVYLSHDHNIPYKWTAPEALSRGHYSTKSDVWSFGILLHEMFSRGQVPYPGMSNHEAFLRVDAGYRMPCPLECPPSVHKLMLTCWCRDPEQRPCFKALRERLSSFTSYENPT
Sequence of Serine/threonine-protein kinase 10 (O94804 whole entry): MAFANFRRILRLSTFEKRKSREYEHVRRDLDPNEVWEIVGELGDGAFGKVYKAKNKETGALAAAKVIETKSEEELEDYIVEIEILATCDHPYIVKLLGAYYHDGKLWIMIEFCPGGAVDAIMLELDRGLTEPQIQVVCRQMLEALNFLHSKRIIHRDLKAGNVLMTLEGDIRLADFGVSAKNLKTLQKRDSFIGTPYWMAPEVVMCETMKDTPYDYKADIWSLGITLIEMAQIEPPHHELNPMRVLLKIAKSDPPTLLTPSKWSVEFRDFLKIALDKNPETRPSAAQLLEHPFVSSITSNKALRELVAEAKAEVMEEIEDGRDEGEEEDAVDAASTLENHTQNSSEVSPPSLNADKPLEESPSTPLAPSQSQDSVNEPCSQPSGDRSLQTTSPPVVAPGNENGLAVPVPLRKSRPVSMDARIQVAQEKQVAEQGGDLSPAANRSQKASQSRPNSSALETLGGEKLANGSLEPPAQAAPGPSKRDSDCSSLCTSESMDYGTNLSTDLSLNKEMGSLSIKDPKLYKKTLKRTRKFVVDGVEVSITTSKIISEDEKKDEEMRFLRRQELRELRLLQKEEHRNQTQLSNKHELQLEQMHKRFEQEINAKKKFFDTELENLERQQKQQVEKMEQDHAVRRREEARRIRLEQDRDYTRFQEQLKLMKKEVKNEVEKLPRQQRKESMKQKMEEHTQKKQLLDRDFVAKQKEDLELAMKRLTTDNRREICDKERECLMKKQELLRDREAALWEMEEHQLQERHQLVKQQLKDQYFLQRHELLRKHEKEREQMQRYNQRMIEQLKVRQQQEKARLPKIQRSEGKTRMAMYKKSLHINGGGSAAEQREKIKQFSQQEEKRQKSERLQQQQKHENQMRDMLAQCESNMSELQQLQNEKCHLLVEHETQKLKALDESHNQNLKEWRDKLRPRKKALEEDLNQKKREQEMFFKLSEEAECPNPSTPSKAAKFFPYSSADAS

As a reminder, the Kd is the free concentration of one partner at which half of the binding sites on the other are occupied at equilibrium, for simple one-to-one binding. Usually inhibition stands for the change of the read-out against control, counted positive when it falls. By EC50 is commonly meant the concentration giving half of the maximal effect. Usually IC50 stands for the point on the concentration scale where inhibition reaches its midpoint. As to `Cc1cc(NC(=O)c2cccc(S(F)(F)(F)(F)F)c2)cc(-n2ccn3nc(-c4cccnc4)cc23)c1` [BAY-309], the residual activity was 100% in assay [1] (setting [34]); 100% in [4] (setting [34]); 100% in assay [10] (setting [34]); 96% in assay [11] (setting [34]); 34.2% in assay [14]; 100% in assay [20] (setting [34]). Moreover, the residual activity in assay [22] (setting [34]) was 94.2%. For the same molecule, the Ki in assay [2] was determined as 10 µM; in assay [8], 6.99 µM; in assay [9], 4.86 µM; in assay [15], 1.73 µM; in assay [17] it was 10 µM; in assay [19], 2.15 µM. For the same molecule, the results for the Kd in assay [3], in assay [5] and in assay [7] were 0.063 µM (not active), > 20 µM (not active) and 0.0021 µM (active), respectively. In addition, the inhibition in assay [6] is 33.3%; in assay [12], 34.9%; in [13], 5.64%; in assay [21], 5.89%. Further, the EC50 in [16] was 3.2 µM (not active); in assay [18], 2.6 µM (not active). Also, the IC50 was > 10 µM (not active) in [16] and 0.13 µM (not active) in assay [18].

As for `Cc1cc(C)c(-n2ccn3nc(-c4cccnc4)cc23)cc1NC(=O)c1cc(C#N)cc(S(F)(F)(F)(F)F)c1` [BAY-826], the residual activity is 99.5% in assay [1] (setting [35]); 97.4% in assay [4] (setting [35]); 85.5% in [10] (setting [35]); 87.3% in assay [11] (setting [35]); 100% in assay [20] (setting [35]); 91.6% in [22] (setting [35]). The inhibition in [23] was -5.85%; in assay [25], 25.3%; in [27], -5.88%; in [30], 11.9%; in assay [21] it was -3.02%. The IC50 is 0.00045 µM (active) in [24]; > 10 µM (not active) in assay [26]; > 10 µM (not active) in assay [29]; > 20 µM (not active) in assay [31]; 0.44 µM (not active) in assay [33]. Moreover, the Kd in assay [28] is reported as 1.6 µM (not active). The Ki in [32] (read-out: Ki) was 7.1 µM; in [32] (read-out: pKi (converted)) it was 6.68 µM.

Values taken from ChEMBL document CHEMBL4507270 (2021).
